Experimental data as given in the supplement of paper PMC10307832.

Key:
Experiment in all cases: relative viability (nuclei count vs DMSO), 5 days (fraction); higher = more cells survive
[1] = compound: C1CSC2=C(C(=O)N1)SC3=C2C=C(C=C3)O [kb NB 142-70] + O=C(CCCCCCC(=O)Nc1ccccc1)NO [Vorinostat] (partner 1 µM)
Method in brief: (§1)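 The day after seeding in 1536-well plates, lung cancer cell lines were treated by pin tool with a single drug, or with a fixed anchor-drug dose together with five library-drug doses (not always all listed) in √10 steps. After 5 days, a combined fix-and-stain solution (final 0.05% Triton X-100, 1% formaldehyde, 1 ug/ml Hoechst) was added. Nuclei counted on 4× images gave relative viability as treated counts over vehicle counts, reported as the median of duplicate plates.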

[2] = compound: NCC(=O)Nc1ccc(-n2nc(C(F)(F)F)cc2-c2ccc3c(ccc4ccccc43)c2)cc1 + O=C(CCCCCCC(=O)Nc1ccccc1)NO [Vorinostat] (partner 1 µM)
Method in brief: as §1

[3] = compound: NCC(=O)Nc1ccc(-n2nc(C(F)(F)F)cc2-c2ccc3c(ccc4ccccc43)c2)cc1 + O=C(c1cc(Cc2n[nH]c(=O)c3ccccc23)ccc1F)N1CCN(C(=O)C2CC2)CC1 [Olaparib] (partner 8 µM)
Method in brief: as §1

[4] = compound: NCC(=O)Nc1ccc(-n2nc(C(F)(F)F)cc2-c2ccc3c(ccc4ccccc43)c2)cc1 + Nc1ncn([C@H]2C[C@H](O)[C@@H](CO)O2)c(=O)n1 [Decitabine] (partner 2 µM)
Method in brief: as §1

Cell Line	relative viability ([1]; first compound 0.1 µM)	relative viability ([1]; first compound 1 µM)	relative viability ([1]; first compound 3.162 µM)	relative viability ([2]; first compound 0.02 µM)	relative viability ([2]; first compound 0.06325 µM)	relative viability ([2]; first compound 0.2 µM)	relative viability ([2]; first compound 0.6325 µM)	relative viability ([2]; first compound 2 µM)	relative viability ([3]; first compound 0.02 µM)	relative viability ([3]; first compound 0.06325 µM)	relative viability ([3]; first compound 0.2 µM)	relative viability ([3]; first compound 0.6325 µM)	relative viability ([3]; first compound 2 µM)	relative viability ([4]; first compound 0.02 µM)	relative viability ([4]; first compound 0.06325 µM)	relative viability ([4]; first compound 0.2 µM)	relative viability ([4]; first compound 0.6325 µM)	relative viability ([4]; first compound 2 µM)
NCI-H1437	0.857	0.895	0.77	0.834	0.866	0.887	0.802	0.754	0.623	0.62	0.688	0.651	0.664	0.563	0.576	0.634	0.616	0.547
NCI-H460	0.733	0.755	0.436	0.707	0.662	0.687	0.737	0.661	0.368	0.41	0.458	0.354	0.446	0.486	0.525	0.478	0.479	0.366
NCI-H1666	1.1	1.05	0.976	1.03	1.07	1.13	0.938	0.944	0.734	0.83	0.824	0.747	0.776	0.771	0.567	0.778	0.746	0.652
SW 900	0.597	0.593	0.388	0.492	0.464	0.44	0.546	0.53	0.86	0.881	0.88	0.693	0.994	0.43	0.452	0.607	0.406	0.444
NCI-H1651	0.543	0.579	0.566	0.593	0.442	0.543	0.612	0.554	0.177	0.177	0.175	0.175	0.173	0.594	0.351	0.591	0.619	0.613
NCI-H1755	0.709	0.801	0.674	0.758	0.824	0.788	0.768	0.833	0.898	0.854	0.933	0.914	0.923	0.692	0.739	0.686	0.701	0.727
NCI-H661	0.761	0.755	0.767	0.811	0.817	0.774	0.821	0.784	0.773	0.731	0.763	0.713	0.73	0.507	0.592	0.524	0.579	0.572
HARA	0.449	0.438	0.563	0.552	0.518	0.596	0.578	0.551	1.07	1.25	0.762	0.982	1.06	0.581	0.611	0.537	0.654	0.528
NCI-H596	0.656	0.67	0.538	0.636	0.705	0.706	0.731	0.526	0.627	0.77	0.739	0.714	0.658	1.13	1.01	1.07	0.995	1.12
NCI-H23	0.703	0.583	0.298	0.583	0.626	0.644	0.573	0.555	0.33	0.442	0.364	0.329	0.336	0.32	0.357	0.317	0.311	0.324
